Patent publication US9557319B2, “Cell-based arrays, methods of making, and methods of using” (University of Florida Research Foundation, Inc., priority 2010, dated 2017)
Read-outs that look alike come from different tables or passages of the source. Marks after values point to notes of the source that are not given here.

What was measured:
[1] = test system: HCT116 cells; assay: HCT116 apoptosis (annexin V) on drug-eluting cellular microarray; format: cell-based, human; conditions: for drug sensitivity (1/D50): Camptothecin dose response; for drug sensitivity (1/D50) / Emax: apoptosis; for Emax: Homo sapiens, HCT-116, Camptothecin dose response
Description: (§1) Glass coverslips were cleaned in an oxygen plasma etcher (Terra Universal, Fullerton, Calif.). Arrays of isolated spots of (3-Aminopropyl) trimethoxysilane (NH2-terminated silane) (Sigma-Aldrich, St. Louis, Mo.) were robotically printed on clean coverslips using a Calligrapher Miniarrayer printer (Bio-Rad, Hercules, Calif.) with 1500 μm center to center distances and a pin diameter of 400 μm. The silane printed coverslips were then coated with 175 Å of titanium (Ti; 99.995% pure) and 225 Å of gold (Au; 99.999% pure) (Williams Advanced Materials, Buffalo, N.Y.). Following coating, gold-coated arrays were sonicated to remove gold from the amine spots, exposing NH2-terminated silane islands. The coverslips were incubated with 0.1 M, methyl-terminated alkanethiol (CH3(CH2)11SH) (Sigma) for 30 min. Substrates were incubated in 10% Pluronic® F-127 (BASF Corporation, USA) for 3 h and 1% heat-denatured BSA for 30 min to create a non-fouling surface around the adhesive amine islands. Three layers of the drug-loaded ethylene vinyl acetate (EVA) polymers were printed over the amine islands and placed in a desiccator between each successive layer. Poly-d-lysine (0.1%) was over-spotted onto the EVA films to promote cell attachment. […] Schematic diagrams of the arrays are illustrated in FIGS. 6A and 6B.
(§2) HCT116 (p53+/+, ATCC, Manassas, Va.) human colon cancer cells were maintained in McCoy's 5a Medium supplemented with 10% fetal bovine serum (Thermo Scientific, Waltham, Mass.), 1% penicillin G and 1% streptomycin (Thermo Scientific). The cells were cultured at 37° C. in a humidified incubator containing 5% CO2. Following microarray fabrication, 100,000 HCT116 cells were seeded over each array in 3 ml serum-free media and allowed to incubate on a rocking plate at room temperature until cell attachment to the EVA islands occurred, with minimal attachment to background, typically 10-15 min. Microarrays were gently washed in PBS, placed in a 35 mm petri dish with complete media, and placed in an incubator for 24-72 h.
(§3) Camptothecin-loaded microarrays were stained with Annexin V (BD Pharminigen), fixed in 4% paraformaldehyde, and placed in PBS with Hoechst dye 34580 (Invitrogen, USA) for 30 min. Azide-loaded microarrays were fixed with 4% paraformaldehyde and incubated with PBS containing Hoechst 34580 dye. Finally, nutlin-3a-loaded microarrays were fixed with 4% paraformaldehyde, stained with BrdU (BD Bioscience, San Jose, Calif.), and incubated in PBS containing Hoechst 34580 dye. All arrays were mounted with Fluoro-Gel (Electron Microscope Sciences, Hatfield, Pa.) and imaged using an Axiovert 200M microscope (Carl Zeiss, Oberkochen, Germany). Analysis was performed with Axiovision (Carl Zeiss, Oberkochen, Germany) by quantifying, in each drug-eluting island, the area of fluorescence and reported as relative fluorescence intensity (RFI).
(§4) Proliferation values were normalized to control (0 μM drug). Values for concentration-response curves were transformed to non-proliferation by subtracting the normalized value from 100%. Curve fitting analysis was performed to obtain Emax and D50 values using the equation E=E0+(Emax×D)/(D+D50) where E is the effect (either non-proliferation or apoptosis), E0 is the initial value, Emax is the maximum effect, D is the dose, and D50 is the dose at which a 50% maximum effect (Emax) is observed^34. Drug sensitivity values were obtained by taking the inverse of the D50 and multiplying by 100. Those values marked with “#” indicate that the r^2 value of the curve-fit was below 0.65. N/A values are present where negative parameters were obtained.
(§5) Hyperbolic curve fits were generated for the dose responses from a first drug in the presence of a fixed amount of a second drug for each combination (Tables 2 and 3, below). […]

[2] = test system: HCT116 cells; assay: Proliferation of HCT116 cells incubated with soluble drugs in 96-well plates; format: cell-based, human; conditions: soluble drug, 24 h
Experimental: FIGS. 12A-12D are a series of graphs illustrating apoptosis and proliferation dose-response curves from HCT116 cells incubated with soluble drugs. FIG. 12A illustrates the percent of apoptotic HCT116 cells incubated 24 h with soluble nutlin-3a. […] Significant differences were determined by ANOVA, {F(5,282)=19.694, p<0.05}, followed by Tukey's post-hoc analysis. FIG. 12C illustrates the percent of non-proliferating HCT116 cells incubated 24 h with soluble nutlin-3a. Significant differences were determined by ANOVA, {F(4,226)=12.643, p<0.05}, followed by Tukey's post-hoc analysis. […] Significant differences were determined by ANOVA, {F(5,252)=102.485, p<0.05}, followed by Tukey's post-hoc analysis. (*: p<0.05 compared to all other conditions, #:p<0.05 from all conditions marked *).
Results were corroborated using soluble drugs in 96-well plates (FIGS. 12A-D).

[3] = test system: HCT116 cells; assay: HCT116 proliferation (BrdU) on drug-eluting cellular microarray; format: cell-based, human; conditions: for drug sensitivity (1/D50) / Emax: Camptothecin dose response, non-proliferation, 24 h; for Emax: Homo sapiens, HCT-116, 24 h, read-out: Emax
Description: as §1, §2, §3, §4, §5

[4] = test system: CA1 CCSCs; assay: CA1 patient-derived CCSC proliferation on drug-eluting microarray; format: cell-based, human; conditions: for drug sensitivity (1/D50) / Emax: Camptothecin dose response, non-proliferation, CA1; for Emax: Homo sapiens, read-out: Emax
Experimental: ALDH^high spheres were generated from tumor cells obtained from patients with colon cancer. Isolated cells were cultured in serum-free media as previously described^14 (reference 14 is hereby incorporated by reference herein with respect to methods for culturing cells in serum-free media). Using these cultures, adherent cell growth was established with 0.1% gelatin (Millipore) coatings on tissue culture plates (TPP, Switzerland) and the cells were serially propagated. For CA1 and CA2 cells, 25,000 cells were tested per array. Cells were seeded in PBS with 0.1% gelatin and treated identically to the microarrays with HCT116.
as §3, §4

[5] = Drug release from microarrayed drug-loaded EVA islands; format: physicochemical; conditions: release from drug-loaded EVA microarray, followed by steady release
Experimental: For drug release studies, polymer formulations were again made as described above. Glass coverslips were weighed prior to printing. Arrays consisting of 900 drug-loaded polymer islands were manufactured and allowed to dry overnight. Samples were weighed and placed in 3 ml of PBS containing 0.1% Tween-80 at 37° C. with gentle agitation. Samples were taken at the specified times and analyzed.

CC[C@@]1(O)C(=O)OCc2c1cc1n(c2=O)Cc2cc3ccccc3nc2-1 [Camptothecin]
decrease in the Emax of the camptothecin concentration response curve ([1]; 125 μM nutlin-3a compared to 0 μM nutlin-3a, HCT116 apoptosis): 65% | proportion of HCT116 cells undergoing apoptosis on single-drug microarray ([1]; 72 h incubation): greater with increasing concentrations | drug sensitivity (1/D50) ([1]; 2nd drug NUT 0 μM): 2.53 +/− 1.1 | drug sensitivity (1/D50) ([1]; 2nd drug NUT 1 μM): 83.3 +/− 76 | drug sensitivity (1/D50) ([1]; 2nd drug NUT 25 μM): 15.9 +/− 2.8 | Emax ([1]; 2nd drug NUT 0 μM): 21.6% | Emax ([1]; 2nd drug NUT 1 μM): 12.8% | Emax ([1]; 2nd drug NUT 25 μM): 9.31% | Emax ([1]; 2nd drug NUT 125 μM): 7.46% | effect on reducing proliferation of HCT116 cells [2]: dose-dependent effect | increase in sensitivity to camptothecin in presence of nutlin-3a ([3]; 125 μM nutlin compared to 0 μM nutlin, HCT116 proliferation): over 16 fold | drug sensitivity (1/D50) ([3]; 2nd drug NUT 0 μM): 4.83 +/− 0.54* | drug sensitivity (1/D50) ([3]; 2nd drug NUT 0 μM, listed as camptothecin): 4.83 | drug sensitivity (1/D50) ([3]; 2nd drug NUT 1 μM): 5.65 +/− 5.2 | drug sensitivity (1/D50) ([3]; 2nd drug NUT 25 μM): 12.1 +/− 18 | drug sensitivity (1/D50) ([3]; 2nd drug NUT 125 μM): 78.1 +/− 26* | drug sensitivity (1/D50) ([3]; 2nd drug NUT 125 μM, listed as camptothecin): 78.1 | Emax ([3]; 2nd drug NUT 0 μM): 86.4% | Emax ([3]; 2nd drug NUT 1 μM): 88.8% | Emax ([3]; 2nd drug NUT 25 μM): 86.3% | Emax ([3]; 2nd drug NUT 125 μM): 79.1% | proliferation with increasing drug exposure ([4]; CA1 cells, single drug): decreasing proliferation | drug sensitivity (1/D50) ([4]; 2nd drug NUT 0 μM): 10.8 +/− 16 | drug sensitivity (1/D50) ([4]; 2nd drug NUT 1 μM): 1.97 +/− 7.7 | drug sensitivity (1/D50) ([4]; 2nd drug NUT 25 μM): 3.18 +/− 0.40 | drug sensitivity (1/D50) ([4]; 2nd drug NUT 125 μM): 0.62 +/− 1.8 | Emax ([4]; 2nd drug NUT 0 μM): 61.9% | Emax ([4]; 2nd drug NUT 1 μM): 105% | Emax ([4]; 2nd drug NUT 25 μM): 109% | Emax ([4]; 2nd drug NUT 125 μM): 221% | burst release duration [5]: approximately 24 h
